Experimental data published in US10265307B2, “Thiazolecarboxamides and pyridinecarboxamide compounds useful as Pim kinase inhibitors” (Incyte Corporation, priority 2013, dated 2019).

Assays:
Format in all cases: biochemical
Pim-2 = Pim-2 (Homo sapiens (Human), UniProt Q9P1W9); experiment: Pim-2 kinase assay; conditions: 1 mM ATP; read-out: Pim2 IC50
Procedure: Pim-2 kinase assay-20 μL reactions were run in white 384 well polystyrene plates dotted with 0.8 μL compound/DMSO in the assay buffer (50 mM Tris, pH 7.5, 0.01% Tween-20, 5 mM MgCl2, 0.01% BSA, 5 mM DTT), containing 0.05 μM Fluorescein-labeled CREBtide peptide substrate (Invitrogen PV3508), 1 mM ATP, and 1 nM enzyme (Invitrogen PV3649) for 2 h at 25° C. Reactions were stopped by addition of 10 μL TR-FRET Dilution Buffer (Invitrogen PV3574) with 30 mM EDTA and 1.5 nM LanthaScreen Tb-CREB pSer133 antibody (Invitrogen PV3566). After 30 min. incubation at room temperature, plates were read on a PHERAstar FS plate reader (BMG Labtech).
Although the above in vitro assays are conducted at 1 mM ATP compounds can also be evaluated for potency and in vitro activity against PIM targets utilizing Km conditions, where the concentration of ATP is set to the Km value and the assay is more sensitive to PIM inhibition activity.

Pim-3 = Pim-3 (Homo sapiens (Human), UniProt Q86V86); experiment: Pim-3 kinase assay; conditions: 1 mM ATP; read-out: Pim3 IC50
Procedure: Pim-1 and Pim-3 kinase assays-20 μL reactions were run in white 384 well polystyrene plates dotted with 0.8 μL compound/DMSO in the assay buffer (50 mM Tris, pH 7.5, 0.01% Tween-20, 5 mM MgCl2, 0.01% BSA, 5 mM DTT), containing 0.05 μM Biotin-labeled BAD peptide substrate (AnaSpec 62269), 1 mM ATP, and […] (Pim-1, Invitrogen PV3503) or […] (Pim-3, Millipore 14-738) enzyme for 1 h at 25° C. Reactions were stopped by addition of 10 μL STOP Buffer (150 mM Tris, pH=7.5, 150 mM NaCl, 75 mM EDTA, 0.01% Tween-20, 0.3% BSA) supplemented with Phospho-Bad (Ser112) Antibody (Cell Signaling 9291) diluted 666-fold, and Streptavidin donor beads (PerkinElmer 6760002) along with Protein-A acceptor beads (PerkinElmer 6760137) at 15 μg/mL each. Supplementation of the STOP buffer with beads and stopping the reactions were done under reduced light. Prior to the stopping reactions STOP buffer with beads was pre-incubated for 1 h in the dark at room temperature. After stopping the reactions, plates were incubated for 1 h in the dark at room temperature before reading on a PHERAstar FS plate reader (BMG Labtech) under reduced light.

Pim-1 = Pim-1 (Homo sapiens (Human), UniProt P11309); experiment: Pim-1 kinase assay; conditions: 1 mM ATP; read-out: Pim1 IC50
Procedure: Supplementation of the STOP buffer with beads and stopping the reactions were done under reduced light. Prior to the stopping reactions STOP buffer with beads was pre-incubated for 1 h in the dark at room temperature. After stopping the reactions, plates were incubated for 1 h in the dark at room temperature before reading on a PHERAstar FS plate reader (BMG Labtech) under reduced light.

Sequence of Pim-2 (Q9P1W9 whole entry): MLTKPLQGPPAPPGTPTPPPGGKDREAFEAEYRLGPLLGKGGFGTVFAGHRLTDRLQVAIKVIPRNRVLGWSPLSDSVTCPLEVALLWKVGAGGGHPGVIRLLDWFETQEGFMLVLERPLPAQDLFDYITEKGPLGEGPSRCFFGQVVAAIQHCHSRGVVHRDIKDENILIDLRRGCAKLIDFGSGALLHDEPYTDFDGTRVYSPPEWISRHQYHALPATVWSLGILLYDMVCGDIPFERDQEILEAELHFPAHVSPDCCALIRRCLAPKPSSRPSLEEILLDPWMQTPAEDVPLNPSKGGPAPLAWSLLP
Sequence of Pim-1 (P11309 whole entry): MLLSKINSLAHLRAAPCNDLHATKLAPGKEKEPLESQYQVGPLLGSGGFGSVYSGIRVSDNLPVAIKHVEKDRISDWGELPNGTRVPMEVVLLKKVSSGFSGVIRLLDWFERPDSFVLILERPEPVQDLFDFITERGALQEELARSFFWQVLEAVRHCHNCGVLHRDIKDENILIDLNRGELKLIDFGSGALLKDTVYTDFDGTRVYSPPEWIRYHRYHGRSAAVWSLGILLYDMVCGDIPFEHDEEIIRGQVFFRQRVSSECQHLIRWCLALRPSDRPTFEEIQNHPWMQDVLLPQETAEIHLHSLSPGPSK

| Structure (SMILES) | IC50 (Pim-2) [nM] | IC50 (Pim-3) [nM] | IC50 (Pim-1) [nM] |
| --- | --- | --- | --- |
| COc1ccc(F)c(-c2nc(C(=O)Nc3cnc4c(c3N3CCC[C@H](N)C3)CCC4O)c(N)s2)c1F (single isomer, unassigned) [53 (Diastereoisomer 2)] | ≤ 100 | ≤ 100 | ≤ 100 |
| COc1ccc(F)c(-c2nc(C(=O)Nc3cnc4c(c3N3C[C@H](C)C[C@H](N)C3)CCC4O)c(N)s2)c1F (single isomer, unassigned) [54 (Diastereoisomer 1)] | ≤ 100 | ≤ 100 | ≤ 100 |
| COc1ccc(F)c(-c2nc(C(=O)Nc3cnc4c(c3N3C[C@H](C)C[C@H](N)C3)CCC4O)c(N)s2)c1F (single isomer, unassigned) [54 (Diastereoisomer 2)] | ≤ 100 | ≤ 100 | ≤ 100 |
| COc1ccc(F)c(-c2nc(C(=O)Nc3cnc4c(c3N3CCC[C@H](N)C3)CCC4O)ccc2F)c1F (single isomer, unassigned) [55 (Diastereoisomer 1)] | 100 to 1000 | ≤ 100 | ≤ 100 |
| COc1ccc(F)c(-c2nc(C(=O)Nc3cnc4c(c3N3CCC[C@H](N)C3)CCC4O)ccc2F)c1F (single isomer, unassigned) [55 (Diastereoisomer 2)] | ≤ 100 | ≤ 100 | ≤ 100 |
| COc1ccc(F)c(-c2nc(C(=O)Nc3cnc4c(c3N3C[C@H](C)C[C@H](N)C3)CCC4O)ccc2F)c1F (single isomer, unassigned) [56 (Diastereoisomer 1)] | ≤ 100 | ≤ 100 | ≤ 100 |
| COc1ccc(F)c(-c2nc(C(=O)Nc3cnc4c(c3N3C[C@H](C)C[C@H](N)C3)CCC4O)ccc2F)c1F (single isomer, unassigned) [56 (Diastereoisomer 2)] | ≤ 100 | ≤ 100 | ≤ 100 |
| CSc1cc(F)c(-c2nc(C(=O)Nc3cnc4c(c3N3CCC[C@H](N)C3)CCC4O)ccc2F)c(F)c1 (single isomer, unassigned) [58 (Diastereoisomer 1)] | 100 to 1000 | ≤ 100 | ≤ 100 |
| CSc1cc(F)c(-c2nc(C(=O)Nc3cnc4c(c3N3CCC[C@H](N)C3)CCC4O)ccc2F)c(F)c1 (single isomer, unassigned) [58 (Diastereoisomer 2)] | 100 to 1000 | ≤ 100 | ≤ 100 |
| C[S+]([O-])c1cc(F)c(-c2nc(C(=O)Nc3cnc4c(c3N3CCC[C@H](N)C3)CCC4O)ccc2F)c(F)c1 (single isomer, unassigned) [59 (Diastereoisomer 1)] | 100 to 1000 | ≤ 100 | ≤ 100 |
| C[S+]([O-])c1cc(F)c(-c2nc(C(=O)Nc3cnc4c(c3N3CCC[C@H](N)C3)CCC4O)ccc2F)c(F)c1 (single isomer, unassigned) [59 (Diastereoisomer 2)] | 100 to 1000 | ≤ 100 | ≤ 100 |
| C[C@@H]1C[C@H](N)CN(c2c(NC(=O)c3ccc(F)c(-c4c(F)cc([S+](C)[O-])cc4F)n3)cnc3c2CCC3O)C1 (single isomer, unassigned) [60 (Diastereoisomer 1)] | 100 to 1000 | ≤ 100 | ≤ 100 |
| C[C@@H]1C[C@H](N)CN(c2c(NC(=O)c3ccc(F)c(-c4c(F)cc([S+](C)[O-])cc4F)n3)cnc3c2CCC3O)C1 (single isomer, unassigned) [60 (Diastereoisomer 2)] | 100 to 1000 | ≤ 100 | ≤ 100 |
| CS(=O)(=O)c1cc(F)c(-c2nc(C(=O)Nc3cnc4c(c3N3CCC[C@H](N)C3)CCC4O)ccc2F)c(F)c1 (single isomer, unassigned) [61 (Diastereoisomer 1)] | > 2000 | > 40 | ≤ 100 |
| CS(=O)(=O)c1cc(F)c(-c2nc(C(=O)Nc3cnc4c(c3N3CCC[C@H](N)C3)CCC4O)ccc2F)c(F)c1 (single isomer, unassigned) [61 (Diastereoisomer 2)] | 100 to 1000 | ≤ 100 | ≤ 100 |
| Nc1ncc(-c2c(F)cccc2F)nc1C(=O)Nc1cnc2c(c1N1CCC[C@H](N)C1)CCC2O (single isomer, unassigned) [62 (Diastereoisomer 1)] | 100 to 1000 | ≤ 100 | ≤ 100 |
| Nc1ncc(-c2c(F)cccc2F)nc1C(=O)Nc1cnc2c(c1N1CCC[C@H](N)C1)CCC2O (single isomer, unassigned) [62 (Diastereoisomer 2)] | 100 to 1000 | ≤ 100 | ≤ 100 |
| C[C@H]1CN(c2c(NC(=O)c3ccc(F)c(-c4c(F)cccc4F)n3)cnc3c2CCC3O)C[C@@H](N)C1(C)O (single isomer, unassigned) [63 (Diastereoisomer 1)] | ≤ 100 | ≤ 100 | ≤ 100 |
| C[C@H]1CN(c2c(NC(=O)c3ccc(F)c(-c4c(F)cccc4F)n3)cnc3c2CCC3O)C[C@@H](N)C1(C)O (single isomer, unassigned) [63 (Diastereoisomer 2)] | ≤ 100 | ≤ 100 | ≤ 100 |
| C[C@H]1CN(c2c(NC(=O)c3ccc(F)c(-c4c(F)cccc4F)n3)cnc3c2CCC3O)C[C@@H](N)C1(C)O (single isomer, unassigned) [63 (Diastereoisomer 3)] | ≤ 100 | ≤ 100 | ≤ 100 |
| C[C@H]1CN(c2c(NC(=O)c3ccc(F)c(-c4c(F)cccc4F)n3)cnc3c2CCC3O)C[C@@H](N)C1(C)O (single isomer, unassigned) [63 (Diastereoisomer 4)] | ≤ 100 | ≤ 100 | ≤ 100 |
| COCc1cc(F)c(-c2nc(C(=O)Nc3cnc4c(c3N3C[C@H](C)C[C@H](N)C3)CCC4O)ccc2F)c(F)c1 (single isomer, unassigned) [64 (Diastereoisomer 1)] | ≤ 100 | ≤ 100 | ≤ 100 |
| COCc1cc(F)c(-c2nc(C(=O)Nc3cnc4c(c3N3C[C@H](C)C[C@H](N)C3)CCC4O)ccc2F)c(F)c1 (single isomer, unassigned) [64 (Diastereoisomer 2)] | ≤ 100 | ≤ 100 | ≤ 100 |
| COCc1cc(F)c(-c2nc(C(=O)Nc3cnc4c(c3N3C[C@@H](N)[C@H](O)[C@@H](C)C3)CCC4O)ccc2F)c(F)c1 (single isomer, unassigned) [66 (Diastereoisomer 1)] | ≤ 100 | ≤ 100 | ≤ 100 |
| COCc1cc(F)c(-c2nc(C(=O)Nc3cnc4c(c3N3C[C@@H](N)[C@H](O)[C@@H](C)C3)CCC4O)ccc2F)c(F)c1 (single isomer, unassigned) [66 (Diastereoisomer 2)] | ≤ 100 | ≤ 100 | ≤ 100 |
| C[C@@H]1C[C@H](N)CN(c2c(NC(=O)c3ccc(F)c(-c4c(F)cc(C(C)(C)O)cc4F)n3)cnc3c2CCC3O)C1 (single isomer, unassigned) [67 (Diastereoisomer 1)] | ≤ 100 | ≤ 100 | ≤ 100 |
| C[C@@H]1C[C@H](N)CN(c2c(NC(=O)c3ccc(F)c(-c4c(F)cc(C(C)(C)O)cc4F)n3)cnc3c2CCC3O)C1 (single isomer, unassigned) [67 (Diastereoisomer 2)] | ≤ 100 | ≤ 100 | ≤ 100 |
| N[C@@H]1CN(c2c(NC(=O)c3ccc(F)c(-c4c(F)cccc4F)n3)cnc3c2CCC3O)C[C@H](C2CC2)[C@H]1O (single isomer, unassigned) [68 (Diastereoisomer 1)] | ≤ 100 | ≤ 100 | ≤ 100 |
| N[C@@H]1CN(c2c(NC(=O)c3ccc(F)c(-c4c(F)cccc4F)n3)cnc3c2CCC3O)C[C@H](C2CC2)[C@H]1O (single isomer, unassigned) [68 (Diastereoisomer 2)] | ≤ 100 | ≤ 100 | ≤ 100 |
| C[C@@H]1C[C@H](N)CN(c2c(NC(=O)c3ccc(F)c(-c4c(F)cc(OC5CCCOC5)cc4F)n3)cnc3c2CCC3O)C1 (single isomer, unassigned) [70 (Diastereoisomer 1)] | ≤ 100 | ≤ 100 | ≤ 100 |
